Assay results as given in US9963476B2, “Antioxidant compound having anti atherosclerotic effect and preparation thereof” (Council of Scientific and Industrial Research, priority 2015, dated 2018).

Legend:
Apo E−/− mice aorta = test: Mito-Esc quantified by ESI-MS in cytosolic and mitochondrial fractions of ApoE−/− mice aortic tissue; type: in vivo; conditions: 0.5 mg/kg/day in drinking water
Procedure: After the treatment, cells were washed thrice with PBS. Similarly Mito-Esculetin+ Ang-II treatment group, Ang-II alone treatment group and control Apo E^-/- mice aortic tissue was taken. The isolation of mitochondrial and cytosolic extracts was carried out using a commercially available Proteo Extract Cytosol/Mitochondria Fractionation Kit (Cat. no. QIA88-Merck, USA) according to manufacturer's instructions. Initially, mitochondrial and cytosolic fractions were separated using a commercially available kit as mentioned elsewhere. Mito-Esc was quantified in the mitochondrial and cytosolic fractions obtained from HAEC and aorta of ApoE^-/- mice of different treatment groups as mentioned in Animal Experiments section (Table-1). Electrospray ionization (ESI)-MS. ESI-MS (positive mode) measurements were performed using a quadrupole time-of-flight mass spectrometer (QSTAR XL, Applied Biosystems/MDS Sciex, Foster City, Calif., USA). The data acquisition was under the control of Analyst QS software (Applied Biosystems). For the CID (collision-induced dissociation) experiments, the precursor ions were selected using the quadrupole analyzer and the product ions were analyzed using the TOF analyzer.

[1] = tested on: Ang-II-induced atherosclerosis in ApoE−/− mice; test: Serum lipid profile of Ang-II treated ApoE−/− mice; type: in vivo
Procedure: Experiments were conducted in 2-month-old male apolipoprotein E knockout (ApoE^−/−) mice according to the guidelines formulated for care and use of animals in scientific research (ICMR, New Delhi, India) at a CPCSEA (Committee for the Purpose of Control and Supervision of Experiments on Animals) registered animal facility. […] Animals were randomly divided into 3 groups each n=7:1) control 2) Ang-II treatment and 3) Mito-Esculetin+Ang-II treatment. Ang-II and Mito-Esculetin treatment groups received Ang-II (sigma) at a dose of 1.44 mg/kg/day for 6 weeks through sub-cutaneous route where as control group received normal saline. Mito-Esculetin treatment group received the compound at a dose of 0.5 mg/kg/day in normal drinking water. All animals were fed on normal chow throughout the study. After 6 weeks, all groups of animals were sacrificed as per standard protocols for euthanasia.
We further analyzed the vascular remodelling employing histological stains in tissue sections of thoracic aortas. […] In tune with this, we have also measured Mac-3 levels by flow cytometry.

[2] = tested on: human aortic endothelial cells (HAEC); test: Trypan blue cell viability assay, oxidant-induced endothelial cell death; type: cell-based; conditions: 2.5 μM, 2 h pretreatment, H2O2 500 μM or Ang-II 500 nM, 24 h
Procedure: Human aortic endothelial cells (HAECs) were obtained from ATCC (Manassas, Va.) and maintained (37° C. 5% CO2) in basal medium supplemented with 10% FBS, VEGF (5 ng/mL), hEGF (5 ng/mL), hFGF (5 ng/mL), IGF-1 (15 ng/mL), ascorbic acid (50 μg/mL), hydrocortisone (1 μg/mL), amphotericin (15 ng/mL), gentamicin (30 ng/mL) and heparin (0.75 Units/mL). Cells used in this study were between passages 4 and 9. Esculetin, Mito-Esc, TPP and nitric oxide synthase inhibitor (L-NAME) were added 2 h before the addition of H2O2 or Ang-II.
At the end of the treatments, cells were harvested and re-suspended in 0.4% trypan blue (Life Technologies) and percent cell viability was counted using cell countess chamber (Life Technologies).
For this, cells were pretreated for 2 h with either Mito-Esc or esculetin before they were incubated with either H2O2 or Ang-II.

HAEC aging / senescence = test: Senescence-associated β-galactosidase staining; type: cell-based, human
Procedure: Low and high passage number (which reflects young and aged) endothelial cells (HAEC) cells were treated with various concentrations of H2O2 (50-500 μM)) for 8 h. Cells were washed in PBS, fixed for […] (room temperature) in 2% formaldehyde/0.2% glutaraldehyde, washed, and incubated at 37° C. with fresh senescence associated β-Gal (SA-,β-Gal) stain solution: 1 mg of 5-bromo-4-chloro-3-indolyl β-D-galactoside (X-Gal) per ml (stock=20 mg of dimethylformamide per ml)/40 mM citric acid/sodium phosphate, pH 6.0; 5 mM potassium ferrocyanide/5 mM potassium ferricyanide/150 mM NaCl/2 mM MgCl2. Staining was visualized after 24 h using a phase contrast microscope.
To study if Mti-Esc influences vascular aging; we have studied its effect on human aortic endothelial cell (HAEC) aging. For this, we used HAEC of different passages (representing different age) from P6 (young age) to P16 (old age). Also we have grown HAEC with Mito-Esc (2.5 μM) for six generations (six passages) to understand its chronic effects in regulating endothelial cell aging phenomenon.

SIRT-3, PGC-1α, TFAM = conditions: HAEC, 8 h
Procedure: At the end of the treatments, HAECs were washed with ice-cold DPBS and resuspended in RIPA buffer (20 mM Tris-HCl, pH 7.4/2.5 mM EDTA/1% Triton X-100/1% sodium deoxycholate/1% SDS/100 mM NaCl/100 mM sodium fluoride) containing protease inhibitor cocktail and phosphatase inhibitor cocktail-2 and -3. The lysate was centrifuged for 15 min at 12000×g. […] Protein bands were detected by using HRP substrate (Millipore-luminata). All the antibodies used for this study were from CST.
Next we investigated the ability of Mito-Esc to modulate the mitochondrial biogenetic regulators namely, silent mating type information regulation 2 homolog (SIRT)-3, Peroxisome proliferator-activated receptor-gamma coactivator (PGC)-1α and mitochondrial transcription factor A (TFAM).

[3] = tested on: mitochondrial content in HAEC; test: Mitotracker staining of mitochondrial content; conditions: 2.5 μM, 8 h
Procedure: Mitochondrial content in cells was assessed by selectively loading the mitochondria with the red fluorescent dye Mitotracker (Invitrogen, Carlsbad, Calif.).

[4] = tested on: eNOS and AMPK phosphorylation; test: eNOS and AMPK phosphorylation in total aorta lysate of ApoE−/− mice; conditions: compared to Ang-II alone or control
Procedure: Experiments were conducted in 2-month-old male apolipoprotein E knockout (ApoE^−/−) mice according to the guidelines formulated for care and use of animals in scientific research (ICMR, New Delhi, India) at a CPCSEA (Committee for the Purpose of Control and Supervision of Experiments on Animals) registered animal facility. […] Animals were randomly divided into 3 groups each n=7:1) control 2) Ang-II treatment and 3) Mito-Esculetin+Ang-II treatment. Ang-II and Mito-Esculetin treatment groups received Ang-II (sigma) at a dose of 1.44 mg/kg/day for 6 weeks through sub-cutaneous route where as control group received normal saline. Mito-Esculetin treatment group received the compound at a dose of 0.5 mg/kg/day in normal drinking water. […]
At the end of the treatments, HAECs were washed with ice-cold DPBS and resuspended in RIPA buffer (20 mM Tris-HCl, pH 7.4/2.5 mM EDTA/1% Triton X-100/1% sodium deoxycholate/1% SDS/100 mM NaCl/100 mM sodium fluoride) containing protease inhibitor cocktail and phosphatase inhibitor cocktail-2 and -3. […] Protein bands were detected by using HRP substrate (Millipore-luminata). […]
To further corroborate Mito-Esc's ability to protect from Ang-II-induced endothelial dysfunction during the progression of atheromatous plaque formation, we measured phospho-AMPK, AMPK, phospho-eNOS and eNOS protein levels in total aorta lysate.

[5] = serum, ApoE−/− mice, 45 days, Ang-II alone or Ang-II + Mito-Esc

O=c1cc(CCCCCCCC[P+](c2ccccc2)(c2ccccc2)c2ccccc2)c2cc(O)c(O)cc2o1.[Br-] [Mito-Esc]
Mitochondrial fraction (Apo E−/− mice aorta): 2547 ± 286 nmol/mg protein
Ang-II mediated increase in LDL, VLDL, triglycerides and total cholesterol ([1]; ApoE−/− mice serum): significantly reduced
serum HDL levels ([1]; ApoE−/− mice serum): significant rise
HDL [1, 5]: 45.53 ± 0.4 mg/dL
LDL [1, 5]: 218.40 ± 20.9 mg/dL
Total Cholesterol [1, 5]: 414.85 ± 8.2 mg/dL
Triglycerides [1, 5]: 150.74 ± 3.8 mg/dL
VLDL [1, 5]: 30.15 ± 0.4 mg/dL
oxidant (H2O2 and Ang-II)-induced endothelial cell death [2]: significantly inhibited
endothelial cell aging (senescence-associated β-gal staining) (HAEC aging / senescence; HAEC, 2.5 μM chronic treatment for six passages): greatly attenuated
H2O2-induced premature senescence (HAEC aging / senescence; P6 (young age) HAEC, H2O2): significantly inhibited
RNA and protein levels of PGC-1α, TFAM (SIRT-3, PGC-1α, TFAM; 2.5 μM): significantly increased
SIRT-3 levels (SIRT-3, PGC-1α, TFAM; 1-5 μM): significantly increased
Ang-II treatment induced inhibition of PGC-1A, TFAM and SIRT-3 levels (SIRT-3, PGC-1α, TFAM; Ang-II 500 nM, 2.5 μM): significantly reversed
mitochondrial content, treatment alone compared to control [3]: increased mitochondrial content
phosphorylation statuses of eNOS and AMPK in total aorta lysate [4]: significant increase
